The EC50 is the concentration giving half of the maximal effect. A higher EC50 goes with a need for much substance. A word on the inhibition: it is the change of the read-out against control, counted positive when it falls. Low values mean little suppression, high ones strong suppression.

In one experiment the target is T1, GB1-FRS2_PTB:FGFR_PEP (Homo sapiens, UniProt Q8WU20).
T1 construct: FRS2-PTB 11-140aa; 6xHis (N); made in house; host or cells: E. coli BL21 (DE3) for the protein
T1 sequence (Q8WU20 11-140): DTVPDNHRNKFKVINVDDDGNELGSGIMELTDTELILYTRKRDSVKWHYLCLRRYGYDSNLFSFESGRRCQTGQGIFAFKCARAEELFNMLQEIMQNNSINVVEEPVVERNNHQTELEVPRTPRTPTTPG
Briefly: nanoDSF competition assay with the FGFR peptide. In kind it is binding. Particulars: PTB domain:FGFR peptide 1:5; 500 μM compound. As to the method: (§1) Purified FRS2_PTB or GB1_FRS2_PTB protein tagged with 6 × Histidine residues and the B1 immunoglobulin binding domain of the streptococcal protein G (GB1) were diluted in the protein buffer (100 mM sodium phosphate, 50 mM NaCl, 0.5 mM EDTA, 50 mM arginine, 1 mM TCEP, pH 7.0) to 30 μM, GB-1 to 40 μM. FGFR_PEP, compounds or paracetamol (PARA) as negative control were dissolved at 1 mM in the protein buffer supplemented with 10% DMSO. Compound and protein were mixed at 1:1 volume ratio yielding a final concentration of 15 μM and 20 μM for FRS2_PTB/GB1_FRS2_PTB and GB1, respectively, as well as 500 μM for FGFR_PEP or compounds. The mixture was incubated for 15 min. Each compound was measured in triplicates. Protein controls were measured in six replicates in the beginning. The quality of the screen was assessed by the Z-factor. nanoDSF validation studies were performed on a Prometheus® system in high sensitivity capillaries. Samples were heated with 1 °C/min from 20 to 95 °C. Each compound was measured in triplicates. GB1-FRS2_PTB and GB1 were diluted in the protein buffer (100 mM sodium phosphate, 50 mM NaCl, 0.5 mM EDTA, 50 mM arginine, 1 mM TCEP, pH 7.0) to 30 μM. Compounds 3.3, 3.4, 3.18 as well as the 3.18 analogues were dissolved in 100% DMSO at 50 or 100 mM and further diluted to 1 mM with a final […]. FGFR_PEP was dissolved at 1 mM in the protein buffer supplemented with 10% DMSO. Compound and protein were mixed at 1:1 volume ratio yielding final concentrations of 15 μM protein and 500 μM for the compounds. FGFR_PEP was measured against both GB1-FRS2_PTB and GB1, all other compounds only against GB1-FRS2_PTB. The mixture was incubated for 15 min before measurement. The data was analyzed for both the ratio of signals at 330 and 350 nm and at 350 nm alone. For the competition assays, the PTB domain and the FGFR peptide were mixed at a 1:5 ratio, and ligand competition was assayed in the presence of 500 μM compound.
(Differential scanning fluorimetry follows unfolding on heating by fluorescence.)

The test system of another experiment is AGS. Briefly: SIA, collagen I invasion. The class given is cell-based. Particulars: Homo sapiens. As to the method:
(§2) 1000—2500 cells/well in 100 μl were seeded in 96 well Corning® Spheroid microplate (CLS4520, Sigma-Aldrich) or in cell-repellent 96 well microplate (650,790, Greiner Bio-one). SIA and analysis was performed as described before. In brief: After spheroid formation (24 – 72 h after seeding), 70 µl medium was removed and replaced with the collagen mixture (2.5 mg/ml Pure Col Collagen I (Advanced Biomatrix)), DMEM 1x (from 10 × stock, Sigma, D2429) and 0.4% Sodium bicarbonate (Sigma, S8761)), resulting in a final collagen concentration of 1.75 mg/ml. Embedded spheroids were stimulated with bFGF (100 ng/ml if not otherwise stated), HGF (30 ng /ml) or EGF (20 ng/ml) and distance of invaded cells quantified 24 – 48 h after embedding. Compounds and BGJ398 were added in Dimethylsulfoxid (DMSO) and corresponding DMSO concentrations were used in control samples.

Another experiment deals with SKOV3. The experiment is described as follows: SIA, collagen I invasion. The note with it: Homo sapiens. In kind it is cell-based. The method, then:
as §2

For another experiment, the target named is T2, GB1-FRS2-PTB (Homo sapiens, UniProt Q8WU20).
T2 construct: FRS2-PTB 11-140aa; 6xHis (N); made in house; host or cells: E. coli BL21 (DE3)
T2 sequence (Q8WU20 11-140): T1 sequence (Q8WU20 11-140)
The experiment is described as follows: NMR STD and WaterLOGSY ligand observation. The class given is binding. The note with it: 25 µM GB1-FRS2-PTB, 500 µM ligand, 280 K. As to the method:
STD and WaterLOGSY experiments were measured at 7 °C on a Bruker AvNEO 600 spectrometer equipped with a TCI cryoprobe. In the STD experiments saturation was achieved by applying a series of Gaussian-shaped pulses at a RF field strength of 54 Hz (max.) for 3 s at -0.5 ppm (-40 ppm for the reference experiment) and 512 scans were accumulated. The WaterLOGSY was measured with 256 scans and a mixing time of 1.5 s. A 7.5 ms Gaussian-shaped 180° pulse was used to control the water magnetization. For both experiments samples of 25 µM GB1-FRS2_PTB with a 20-fold excess of ligand (500 µM) were used or with the ligand alone for the control experiment.

A further experiment has as its target T3, FRS2_PTB (Homo sapiens, UniProt Q8WU20).
T3 construct: FRS2-PTB 11-140aa; 6xHis; made in house; host or cells: E. coli BL21 (DE3)
T3 sequence (Q8WU20 11-140): T1 sequence (Q8WU20 11-140)
Briefly: nano differential scanning fluorimetry (nanoDSF). Particulars: 500 μM ligand. In kind it is binding. As to the method:
Assay establishment and pilot nanoDSF experiments were performed with a Tycho® system. Each experiment was performed by mixing the protein and ligand of interest at a 1:1 ratio and subsequent incubation for 15–30 min at room temperature. Controls of protein alone and ligand alone in identical buffer compositions as for the complex were measured accordingly. The temperature gradient ranged from 35 to 95 °C, and the heating rate was 30 °C/min. Inflection temperatures TI were calculated from the first derivative of the spectra obtained at the ratio of the signals at 350 nm to those at 330 nm. ΔTI of a complex was calculated as following: ΔTI,complex = TI,complex – TI,protein.
The in-built software version 1.1.5.668 (NanoTemper Technologies, Munich, Germany) and Microsoft Office Excel 365 (Microsoft Corp., Seattle, USA) was used for data analysis. Data was plotted with GraphPad Prism vers. 8.3.0 (GraphPad Software, San Diego, USA).
as §1, with “For the competition assays, the PTB domain and the FGFR peptide were mixed at a 1:5 ratio, and ligand competition was assayed in the presence of 500 μM compound.” left out

With `O=[N+]([O-])c1c(Cl)cc(O)c2c1C1C=CCC1C(c1ccc(Cl)cc1)N2` (stereo not shown) [Compound 7], the “nanoDSF competition with FGFR peptide (result in words)” value at GB1-FRS2_PTB:FGFR_PEP is on record as “negative shift in compound-mixed samples”. The EC50 came to 4.66 µM in the experiment with AGS (100 ng/ml bFGF) and 4.5 µM in the experiment on SKOV3 (SK-OV-3, 100 ng/ml bFGF).
For the compound `CC(C)C[C@@H](CO)NCc1cc(O)c2cc(F)ccc2n1` [Compound 3.14], at GB1-FRS2-PTB, the “binding to the PTB domain by STD and WaterLOGSY (result in words)” value was “clearly demonstrated binding”. For the same compound, on FRS2_PTB, the “nanoDSF shift of the inflection point of the melting curve (ΔTm)” value was over 2.0 °C. In addition, the inhibition at 10 µM in the experiment with AGS (10 µM) was about 50%; in the experiment on SKOV3 (SK-OV-3, 10 µM), about 50%.
Consider `O=[N+]([O-])c1c(Cl)cc(O)c2c1C1C=CCC1C(c1ccc(Cl)cc1Cl)N2` (stereo not shown) [Compound 8], for which the “nanoDSF competition with FGFR peptide (result in words)” value on GB1-FRS2_PTB:FGFR_PEP is reported as “negative shift in compound-mixed samples”.
For `COc1ncc(C(C)NC2CC(C)(C)NC(C)(C)C2)cc1Cl` (stereo not shown) [Compound 3.3], the “nanoDSF shift of the inflection point of the melting curve (ΔTm)” value on FRS2_PTB is about 1.5 °C.
With `O=C(O)c1c(Cl)cc(O)c2c1C1C=CCC1C(c1ccc(Cl)cc1)N2` (stereo not shown) [Compound 13], at GB1-FRS2-PTB, the “binding to the PTB domain by STD and WaterLOGSY (result in words)” value is “clearly demonstrated binding”.
